Test results as given in PubChem BioAssay AID328 (DTP/NCI, 2004).
Several values for one entry are separate records, joined by “and”; a condition that tells them apart may be missing. Identical values can stand only once. Toxic doses and inconclusive results are not listed. The calls were made as follows: active = survival T/C of 150% or more; inactive = T/C below 125% in these data.

System: BDF1 mice, P388 leukemia ip, median survival T/C
Experiment: NCI In Vivo Anticancer Drug Screen. Data for tumor model P388 Leukemia (intraperitoneal) in B6D2F1 (BDF1) mice
Settings: endpoint: median survival time, higher = longer survival
Outline: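 Survival ratio, drug arm over vehicle arm, in mice with a transplanted tumour.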

[1] = dose: 100.0 mg/kg/injection, schedule: Q04DX003 (ip), vehicle: saline with Tween-80
[2] = dose: 200.0 mg/kg/injection, schedule: Q04DX003 (ip), vehicle: saline with Tween-80
[3] = dose: 50.0 mg/kg/injection, schedule: Q01DX009 (ip), vehicle: saline with Tween-80
[4] = dose: 100.0 mg/kg/injection, schedule: Q01DX009 (ip), vehicle: saline with Tween-80
[5] = dose: 200.0 mg/kg/injection, schedule: Q01DX009 (ip), vehicle: saline with Tween-80
[6] = dose: 100.0 mg/kg/injection, schedule: Q01DX009 (ip), vehicle: Klucel (hydroxypropylcellulose) (HPC)
[7] = dose: 50.0 mg/kg/injection, schedule: Q04DX003 (ip), vehicle: saline with Tween-80
[8] = dose: 400.0 mg/kg/injection, schedule: Q01DX009 (ip), vehicle: saline with Tween-80

Measured: T/C

CN(C)C1CCc2[nH]c3c(F)cc(F)cc3c2C1 (stereo not given)
inactive: dose: 3.13 mg/kg/injection, schedule: Q01DX009 (ip), vehicle: saline with Tween-80 95 % of control | dose: 6.25 mg/kg/injection, schedule: Q01DX009 (ip), vehicle: saline with Tween-80 103 % of control | dose: 12.5 mg/kg/injection, schedule: Q01DX009 (ip), vehicle: saline with Tween-80 101 % of control

CC1(C)CC(=O)NN1C(=O)c1ccccc1
inactive: [1] 100 % of control | [2] 105 % of control | dose: 400.0 mg/kg/injection, schedule: Q04DX003 (ip), vehicle: saline with Tween-80 95 % of control

C#CCN(C)Cc1ccccc1
inactive: dose: 50.0 mg/kg/injection, schedule: Q01DX010 (ip), vehicle: saline 95 % of control | dose: 100.0 mg/kg/injection, schedule: Q01DX010 (ip), vehicle: saline 100 % of control | dose: 200.0 mg/kg/injection, schedule: Q01DX010 (ip), vehicle: saline 109 % of control

C=CCC(B1OCCO1)B1OCCO1
inactive: dose: 25.0 mg/kg/injection, schedule: Q04DX003 (ip), vehicle: saline 95 % of control | dose: 50.0 mg/kg/injection, schedule: Q04DX003 (ip), vehicle: saline 90 % of control | dose: 100.0 mg/kg/injection, schedule: Q04DX003 (ip), vehicle: saline 100 % of control

CCOCc1c(COc2ccc(OC)cc2)n(CC#CCOc2ccc(OC)cc2)c2ccc(Br)cc12
inactive: [3] 101 % of control | [4] 93 % of control | [5] 98 % of control

COc1cc2cc(c1Cl)N(C)C(=O)CC(OC(C)=O)C1(C)OC1C(C)C1CC(O)(NC(=O)O1)C(OC)C=C/C=C(\C)C2 (stereo not given)
inactive: dose: 0.2 micrograms/kg/injection, schedule: Q01DX009 (ip), vehicle: saline + alcohol 90 % of control | dose: 0.4 micrograms/kg/injection, schedule: Q01DX009 (ip), vehicle: saline + alcohol 95 % of control | dose: 0.8 micrograms/kg/injection, schedule: Q01DX009 (ip), vehicle: saline + alcohol 95 % of control and 110 % of control | dose: 1.6 micrograms/kg/injection, schedule: Q01DX009 (ip), vehicle: saline + alcohol 100 % of control | dose: 3.1 micrograms/kg/injection, schedule: Q01DX009 (ip), vehicle: saline + alcohol 110 % of control | dose: 200.0 micrograms/kg/injection, schedule: Q01DX009 (ip), vehicle: saline + alcohol 100 % of control
active: dose: 1.5 micrograms/kg/injection, schedule: Q01DX009 (ip), vehicle: saline + alcohol 150 % of control | dose: 6.2 micrograms/kg/injection, schedule: Q01DX009 (ip), vehicle: saline + alcohol 150 % of control | dose: 12.5 micrograms/kg/injection, schedule: Q01DX009 (ip), vehicle: saline + alcohol 158 % of control | dose: 25.0 micrograms/kg/injection, schedule: Q01DX009 (ip), vehicle: saline + alcohol 170 % of control and 173 % of control | dose: 50.0 micrograms/kg/injection, schedule: Q01DX009 (ip), vehicle: saline + alcohol 183 % of control (2×) and 190 % of control | dose: 100.0 micrograms/kg/injection, schedule: Q01DX009 (ip), vehicle: saline + alcohol 230 % of control and 204 % of control

O=C1C(Cl)=C(Cl)C(=O)C2=C1C1c3ccccc3C2c2ccccc21
inactive: [6] 115 % of control | dose: 200.0 mg/kg/injection, schedule: Q01DX009 (ip), vehicle: Klucel (hydroxypropylcellulose) (HPC) 120 % of control | dose: 200.0 mg/kg/injection, schedule: Q04DX003 (ip), vehicle: saline sonified 109 % of control | dose: 400.0 mg/kg/injection, schedule: Q01DX009 (ip), vehicle: Klucel (hydroxypropylcellulose) (HPC) 105 % of control | dose: 400.0 mg/kg/injection, schedule: Q04DX003 (ip), vehicle: saline sonified 104 % of control

C=CCOc1ccccn1
inactive: [7] 90 % of control | [1] 104 % of control | [2] 113 % of control

COc1ccc(S(=O)(=O)Nc2c([N+](=O)[O-])cc([N+](=O)[O-])c3ccccc23)cc1
inactive: dose: 25.0 mg/kg/injection, schedule: Q01DX009 (ip), vehicle: saline with Tween-80 102 % of control | [3] 100 % of control

CC1(C)N=C(N)N=C(N)N1c1cccc(OCCOc2ccc(NC(=O)CBr)cc2)c1
inactive: dose: 50.0 mg/kg/injection, schedule: Q01DX009 (ip), vehicle: saline sonified 116 % of control | dose: 100.0 mg/kg/injection, schedule: Q01DX009 (ip), vehicle: saline sonified 111 % of control

C[N+](C)(C)Cc1ccccc1/C(=N\O)c1ccccc1
inactive: dose: 5.0 mg/kg/injection, schedule: Q01DX009 (ip), vehicle: saline 109 % of control | dose: 10.0 mg/kg/injection, schedule: Q01DX009 (ip), vehicle: saline 91 % of control

Oc1c(Cl)cc(Cl)cc1C1N2CCCCC2C2c3cccn3-c3ccccc3N21 (stereo not given)
inactive: dose: 50.0 mg/kg/injection, schedule: Q01DX009 (ip), vehicle: Klucel (hydroxypropylcellulose) (HPC) 93 % of control | [6] 90 % of control

Cc1ccc(Nc2n[nH]c(=S)s2)cc1C
inactive: [4] 104 % of control | [5] 109 % of control | [8] 109 % of control

C/C(=C\C1C/C(=C/CCc2ccoc2)C(=O)O1)CCCc1ccoc1 (stereo not given)
inactive: dose: 5.0 mg/kg/injection, schedule: Q01DX009 (ip), vehicle: other 107 % of control | dose: 20.0 mg/kg/injection, schedule: Q01DX009 (ip), vehicle: other 106 % of control

CC(=O)OC1CCC2(C)C3=C(CCC2C1(C)C)C1(C)CCC(c2ccc(C(C)C)oc2=O)C1(C)CC3 (stereo not given)
inactive: dose: 70.0 mg/kg/injection, schedule: Q01DX010 (ip), vehicle: carboxymethylcellulose (CMC) 90 % of control | dose: 140.0 mg/kg/injection, schedule: Q01DX010 (ip), vehicle: carboxymethylcellulose (CMC) 90 % of control | dose: 280.0 mg/kg/injection, schedule: Q01DX010 (ip), vehicle: carboxymethylcellulose (CMC) 90 % of control

Nc1c2ccccc2cc2ccccc12
inactive: [3] 108 % of control | [7] 108 % of control | [4] 108 % of control | [1] 95 % of control | [5] 113 % of control | [2] 91 % of control

CCOC(=O)C(Br)(C(=O)OCC)C(c1ccccc1)c1ccccc1
inactive: [4] 95 % of control | [8] 109 % of control

CCCCOCN(COCCCC)c1cccc(Cl)c1
inactive: [3] 100 % of control | [4] 106 % of control | [5] 117 % of control

CCCCCCCCCCSC#N
inactive: dose: 20.0 mg/kg/injection, schedule: Q04DX003 (ip), vehicle: saline 87 % of control | dose: 40.0 mg/kg/injection, schedule: Q04DX003 (ip), vehicle: saline 91 % of control | dose: 80.0 mg/kg/injection, schedule: Q04DX003 (ip), vehicle: saline 91 % of control

C[C@H]1CN1C1=CC(=O)C(N2C[C@@H]2C)=CC1=O
active: dose: 0.5 mg/kg/injection, schedule: Q01DX009 (ip), vehicle: Klucel (hydroxypropylcellulose) (HPC) 160 % of control | dose: 0.5 mg/kg/injection, schedule: Q01DX009 (ip), vehicle: saline 191 % of control | dose: 1.0 mg/kg/injection, schedule: Q01DX009 (ip), vehicle: Klucel (hydroxypropylcellulose) (HPC) 160 % of control | dose: 1.0 mg/kg/injection, schedule: Q01DX009 (ip), vehicle: saline 220 % of control | dose: 2.0 mg/kg/injection, schedule: Q01DX009 (ip), vehicle: Klucel (hydroxypropylcellulose) (HPC) 200 % of control | dose: 4.0 mg/kg/injection, schedule: Q01DX009 (ip), vehicle: Klucel (hydroxypropylcellulose) (HPC) 190 % of control
inactive: dose: 0.03 mg/kg/injection, schedule: Q01DX009 (ip), vehicle: saline 109 % of control | dose: 0.12 mg/kg/injection, schedule: Q01DX009 (ip), vehicle: saline 118 % of control

Cc1cnc(Cl)nc1Sc1nc(N)nc2nc[nH]c12
active: dose: 6.0 mg/kg/injection, schedule: Q01DX009 (ip), vehicle: saline with Tween-80 184 % of control
inactive: dose: 33.0 mg/kg/injection, schedule: Q04DX003 (ip), vehicle: saline with Tween-80 118 % of control | [7] 122 % of control | dose: 75.0 mg/kg/injection, schedule: Q04DX003 (ip), vehicle: saline with Tween-80 109 % of control | [1] 100 % of control

COc1ccc2c3csc4ccccc4c-3nc2c1
inactive: dose: 12.5 mg/kg/injection, schedule: Q01DX009 (ip), vehicle: Klucel (hydroxypropylcellulose) (HPC) 109 % of control | dose: 25.0 mg/kg/injection, schedule: Q01DX009 (ip), vehicle: Klucel (hydroxypropylcellulose) (HPC) 109 % of control | dose: 25.0 mg/kg/injection, schedule: Q04DX003 (ip), vehicle: Klucel (hydroxypropylcellulose) (HPC) 100 % of control and 122 % of control | dose: 50.0 mg/kg/injection, schedule: Q04DX003 (ip), vehicle: Klucel (hydroxypropylcellulose) (HPC) 109 % of control | dose: 75.0 mg/kg/injection, schedule: Q01DX001 (ip), vehicle: Klucel (hydroxypropylcellulose) (HPC) 112 % of control | dose: 100.0 mg/kg/injection, schedule: Q04DX003 (ip), vehicle: Klucel (hydroxypropylcellulose) (HPC) 104 % of control and 105 % of control | dose: 150.0 mg/kg/injection, schedule: Q01DX001 (ip), vehicle: Klucel (hydroxypropylcellulose) (HPC) 100 % of control
